Measured values from US20070167488A1, “Novel therapeutic use” (Leo Pharma A/S, priority 2003, published 2007).
Marks after values point to notes of the source that are not given here.

Experiments:
IL-6 = IL-6 production by spleen cells of immunized, dosed mice after in vitro restimulation with PLP139-153; assay type: cell-based, mouse; settings: example 6; 50 mg/kg i.p. daily for 10 days, vs vehicle treated group
IL-2 = IL-2 production by spleen cells of immunized, dosed mice after in vitro restimulation with PLP139-153; assay type: cell-based, mouse; settings: example 6; 50 mg/kg i.p. daily for 10 days, vs vehicle treated group
IFN-γ = IFN-γ production by spleen cells of immunized, dosed mice after in vitro restimulation with PLP139-153; assay type: cell-based, mouse; settings: example 6; 50 mg/kg i.p. daily for 10 days, vs vehicle treated group
IL-17 = IL-17 production by spleen cells of immunized, dosed mice after in vitro restimulation with PLP139-153; assay type: cell-based, mouse; settings: example 6; 50 mg/kg i.p. daily for 10 days, vs vehicle treated group
[1] = system: EAE induced in SJL/J mice with a peptide from myelin proteolipid protein (PLP139-153); assay: EAE model in SJL/J mice immunized with PLP139-153 peptide; assay type: in vivo, mouse; settings: for Inhibition of EAE compared with the suspension vehicle group (in words): SJL/J mice, PLP139-153, doses as in tables 1 and 3; for inhibition of EAE: another experiment (data not shown)
[2] = system: EAE in C57BL/6 mice immunized with a peptide from myelin oligodendrocyte glycoprotein (MOG35-55); assay: Second EAE model: C57BL/6JBom mice immunized with MOG35-55 peptide; assay type: in vivo, mouse; settings: MOG35-55, day 0-21, dexamethasone 1 mg/kg p.o.
[3] = Table 3, experiment with vehicle AUC 42.75, day 0-21, 50 mg/kg i.p. daily
[4] = Table 7, 50 mg/kg p.o., suspension vehicle adjusted to pH 4 by addition of aqueous HCl
[5] = Table 4, 50 mg/kg daily, treatment as in example 4
[6] = Exp. 1, terminated day 21, 50 mg/kg i.p. daily
[7] = Exp. 4, terminated day 35, 200 mg/kg p.o. daily
[8] = Exp. 2, terminated day 21, 5 mg/kg i.p. daily
[9] = Exp. 2, terminated day 21, 10 mg/kg i.p. daily
[10] = Exp. 1, terminated day 21, dexamethasone 0.5 mg/kg from day 0
[11] = Exp. 2, terminated day 21, dexamethasone 1 mg/kg from day 1
[12] = Exp. 3, terminated day 28, dexamethasone 1 mg/kg from day 1
[13] = Table 3, experiment with compound 57 (vehicle AUC 28.6), day 0-21, dexamethasone 1 mg/kg p.o.
[14] = Table 3, experiment with compound 110 (vehicle AUC 42.75), day 0-21, dexamethasone 1 mg/kg p.o.

`Cc1cc(C)c(C=C2C(=O)Nc3ccccc32)[nH]1` [3-(3,5-dimethyl-1H-pyrrol-2-ylmethylene)-1,3-dihydro-indol-2-one] was tested, and the “Level of antigen-specific IL-6 production of spleen cells” value (IL-6) was “inhibit expression”, the “Level of antigen-specific IL-2 production of spleen cells” value (IL-2) was “inhibit expression” and the “Level of antigen-specific IFN-γ production of spleen cells” value (IFN-γ) was “inhibit expression”. For the same compound, the “Level of antigen-specific IL-17 production of spleen cells” value (IL-17) was “inhibit expression”.
In the case of `COc1ccc(OC)c(/C=C2/C(=O)Nc3ccccc32)c1` [Compound 110, 3-(2,5-dimethoxy-benzylidene)-1,3-dihydro-indol-2-one], the “Inhibition of EAE compared with the suspension vehicle group (in words)” value [1] is reported as “clear and significant inhibition”, the “AUC (mean) of the disease score” value [1, 3] is reported as 12.15 and the “inhibition (%)” value [1, 3] is reported as 72%. For the same compound, the “Inhibition (%) of EAE (area-under-curve of the disease score)” value (from here on “Inhibition (%) of EAE”) ([1]; Table 7, 50 mg/kg p.o., suspension vehicle) was 47%, the “Inhibition (%) of EAE” value [1, 4] was 67** % and the “inhibition of EAE” value ([1]; 50 mg/kg, highest dose) was 90%. For the same compound, the “inhibition of EAE” value ([1]; lowest dose (significant at 50, 25 and 10 mg/kg; 4 mg/kg also given)) was 42%.
In the case of `COc1ccc(OC)c(/C=C2/C(=O)Nc3cc(Br)ccc32)c1` [Compound 171, 6-bromo-3-(2,5-dimethoxy-benzylidene)-1,3-dihydro-indol-2-one], the “Inhibition (%) of EAE” value [1, 5] is reported as 40%.
For `COc1ccc(OC)c(/C=C2/C(=O)Nc3ccc(F)cc32)c1` [Compound 211, 3-(2,5-dimethoxy-benzylidene)-5-fluoro-1,3-dihydro-indol-2-one], the “Inhibition (%) of EAE” value [1, 4] was 37** %.
With `CCN(CC)CCNC(=O)c1c(C)[nH]c(/C=C2\C(=O)Nc3ccccc32)c1C` [Compound 227, 2,4-dimethyl-5-(2-oxo-1,2-dihydro-indol-3-ylidenemethyl)-1H-pyrrole-3-carboxylic acid (2-diethylamino-ethyl)-amide] the “Inhibition (%) of EAE” value [1, 5] was 49%.
With `CCN(CC)CCNC(=O)c1c(C)[nH]c(/C=C2\C(=O)Nc3ccc(F)cc32)c1C` [Compound 228, 5-(5-fluoro-2-oxo-1,2-dihydro-indol-3-ylidenemethyl)-2,4-dimethyl-1H-pyrrole-3-carboxylic acid (2-diethylamino-ethyl)-amide] the “Inhibition (%) of EAE” value [1, 5] was 43%.
In the case of `Cc1cc(C)c(/C(C(=O)O)=C2\C(=O)Nc3ccccc32)[nH]1` [Compound 229, (3,5-dimethyl-1H-pyrrol-2-yl)-(2-oxo-1,2-dihydro-indol-3-ylidene)-acetic acid], the “Inhibition (%) of EAE” value [1, 5] is reported as 59%.
In the case of `Cc1[nH]c(C=C2C(=O)Nc3ccccc32)c(C)c1CCC(=O)O` [Compound A, 3-[2,4-dimethyl-5-(oxo-1,2-dihydroindol-3-ylidenemethyl)-1H-pyrrol-3-yl]-propionic acid, reference compound], the “AUC (mean) of the disease score” value [1, 6] is reported as 23.4, the “inhibition (%)” value [1, 6] is reported as −36% and the “AUC (mean) of the disease score” value [1, 7] is reported as 55.5. For the same compound, the “inhibition (%)” value [1, 7] was 11% and the “Inhibition of EAE compared with the suspension vehicle group (in words)” value [1] was “no significant inhibition”.
In the case of `CO[C@@H]1[C@H](OC(=O)NC(=O)CCl)CC[C@]2(CO2)[C@H]1[C@@]1(C)O[C@@H]1CC=C(C)C` [Compound B, reference compound], the “AUC (mean) of the disease score” value [1, 8] is reported as 19.0, the “inhibition (%)” value [1, 8] is reported as 25% and the “AUC (mean) of the disease score” value [1, 9] is reported as 19.3. The “inhibition (%)” value [1, 9] was 24% and the “Inhibition of EAE compared with the suspension vehicle group (in words)” value [1] was “no significant inhibition”.
With `C[C@@H]1C[C@H]2[C@@H]3CCC4=CC(=O)C=C[C@]4(C)[C@@]3(F)[C@@H](O)C[C@]2(C)[C@@]1(O)C(=O)CO` [Dexamethasone, dexamethasone, reference compound] the “AUC (mean) of the disease score” value [2] was 0.00, the “inhibition (%)” value [2] was 100% and the “AUC (mean) of the disease score” value [1, 10] was 4.3. For the same compound, the “inhibition (%)” value [1, 10] was 75%, the “AUC (mean) of the disease score” value [1, 11] was 11.8 and the “inhibition (%)” value [1, 11] was 54%. The “AUC (mean) of the disease score” value [1, 12] was 0.8, the “inhibition (%)” value [1, 12] was 98% and the “AUC (mean) of the disease score” value [1, 13] was 13.15. For the same compound, the “inhibition (%)” value [1, 13] was 54%, the “AUC (mean) of the disease score” value [1, 14] was 8.85 and the “inhibition (%)” value [1, 14] was 79%.
